Reference: patent US10358436B2, “Kinase inhibitors and method of treating cancer” (University Health Network, priority 2010, dated 2019)
Structures can show the parent of a compound that is named as a salt.

Target: Aurora A (Homo sapiens (Human), UniProt O14965)
Assay: Aurora A inhibition assay (Z-Lyte)
Type: biochemical

Sequence of Aurora A (O14965 whole entry): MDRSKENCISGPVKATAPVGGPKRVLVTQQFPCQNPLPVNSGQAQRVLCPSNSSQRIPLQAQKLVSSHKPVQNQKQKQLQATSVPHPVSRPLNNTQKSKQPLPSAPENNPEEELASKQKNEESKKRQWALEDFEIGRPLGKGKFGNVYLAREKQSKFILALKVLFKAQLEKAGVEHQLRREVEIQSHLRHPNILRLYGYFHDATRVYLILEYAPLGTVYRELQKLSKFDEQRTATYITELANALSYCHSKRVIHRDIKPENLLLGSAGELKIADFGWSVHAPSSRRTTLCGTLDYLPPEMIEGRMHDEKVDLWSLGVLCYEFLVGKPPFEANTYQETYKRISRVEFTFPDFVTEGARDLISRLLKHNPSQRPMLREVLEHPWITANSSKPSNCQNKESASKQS

COc1ccc2c(c1)[C@]1(C[C@H]1c1ccc3c(-c4ccc(C5CCN(C)CC5)cc4)n[nH]c3c1)C(=O)N2 [Example A123, (1R,2S)-5′-methoxy-2-(3-(4-(1-methylpiperidin-4-yl)phenyl)-1H-indazol-6-yl)spiro[cyclopropane-1,3′-indolin]-2′-one hydrochloride] was tested. Which inhibition at 1 µM did it give?
The inhibition at 1 µM was less than 50%.

For COc1ccc2c(c1)[C@]1(C[C@H]1c1ccc3c(-c4ccc(N5C[C@@H](C)N[C@@H](C)C5)cc4)n[nH]c3c1)C(=O)N2 [Example A126, (1R,2S)-2-(3-(4-(cis-3,5-dimethylpiperazin-1-yl)phenyl)-1H-indazol-6-yl)-5′-methoxyspiro[cyclopropane-1,3′-indolin]-2′-one 2,2,2-trifluoroacetate], which inhibition at 1 µM is on record?
The inhibition at 1 µM was less than 50%.

COc1ccc2c(c1)[C@]1(C[C@H]1c1ccc3c(-c4ccc(N5CC[C@@H](N(C)C)C5)cc4)n[nH]c3c1)C(=O)N2 [Example A127, (1R,2S)-2-(3-(4-((R)-3-(dimethylamino)pyrrolidin-1-yl)phenyl)-1H-indazol-6-yl)-5′-methoxyspiro[cyclopropane-1,3′-indolin]-2′-one 2,2,2-trifluoroacetate] was tested. Which inhibition at 1 µM did it give?
The inhibition at 1 µM was greater than 50%.

How did the inhibition at 1 µM turn out when COc1ccc2c(c1)[C@]1(C[C@H]1c1ccc3c(-c4ccc(N(C)CCN(C)C)cc4)n[nH]c3c1)C(=O)N2 [Example A129, (1R,2S)-2-(3-(4-((2-(dimethylamino)ethyl)(methyl)amino)phenyl)-1H-indazol-6-yl)-5′-methoxyspiro[cyclopropane-1,3′-indolin]-2′-one 2,2,2-trifluoroacetate] was run?
The inhibition at 1 µM was less than 50%.

With COCCN1C(=O)[C@@]2(C[C@H]2c2ccc3c(/C=C/c4ccc(CN(C)C)cc4)n[nH]c3c2)c2ccccc21 [Example A131, (1R,2S)-(E)-2-(3-(4-((dimethylamino)methyl)styryl)-1H-indazol-6-yl)-1′-(2-methoxyethyl)spiro[cyclopropane-1,3′-indolin]-2′-one 2,2,2-trifluoroacetate] as the molecule, how does the inhibition at 1 µM read?
The inhibition at 1 µM was greater than 50%.

CCN(CC)Cc1c(F)cc(/C=C/c2n[nH]c3cc([C@@H]4C[C@@]45C(=O)Nc4ccc(OC)cc45)ccc23)cc1F [Example A146, (1R,2S)-(E)-2-(3-(4-((diethylamino)methyl)-3,5-difluorostyryl)-1H-indazol-6-yl)-5′-methoxyspiro[cyclopropane-1,3′-indolin]-2′-one 2,2,2-trifluoroacetate] was tested. Which inhibition at 1 µM did it give?
Its inhibition at 1 µM is less than 50%.

With Cc1ccc(/C=C/c2n[nH]c3cc([C@@H]4C[C@@]45C(=O)Nc4ccccc45)ccc23)cn1 [Example A150, (1R,2S)-2-(3-((E)-2-(6-methylpyridin-3-yl)vinyl)-1H-indazol-6-yl)spiro[cyclopropane-1,3′-indolin]-2′-one] as the molecule, how does the inhibition at 1 µM read?
Its inhibition at 1 µM is greater than 50%.

COc1ccc2c(c1)[C@]1(C[C@H]1c1ccc3c(/C=C/c4ccc(N5CCN(C)CC5)cc4)n[nH]c3c1)C(=O)N2 [Example A175, (1R,2S)-(E)-5′-methoxy-2-(3-(4-(4-methylpiperazin-1-yl)styryl)-1H-indazol-6-yl)spiro[cyclopropane-1,3′-indolin]-2′-one 2,2,2-trifluoroacetate] was tested. Which inhibition at 1 µM did it give?
The inhibition at 1 µM was less than 50%.

COc1ccc2c(c1)[C@]1(C[C@H]1c1ccc3c(/C=C/c4csc(CN5CCOCC5)c4)n[nH]c3c1)C(=O)N2 [Example A183, (1R,2S)-5′-methoxy-2-(3-((E)-2-(5-(morpholinomethyl)thiophen-3-yl)vinyl)-1H-indazol-6-yl)spiro[cyclopropane-1,3′-indolin]-2′-one 2,2,2-trifluoroacetate] was tested. Which inhibition at 1 µM did it give?
Its inhibition at 1 µM is greater than 50%.

For CCN1CCN(c2ccc(/C=C/c3n[nH]c4cc([C@@H]5C[C@@]56C(=O)Nc5ccc(OC)cc56)ccc34)cc2)CC1 [Example A187, (1R,2S)-(E)-2-(3-(4-(4-ethylpiperazin-1-yl)styryl)-1H-indazol-6-yl)-5′-methoxyspiro[cyclopropane-1,3′-indolin]-2′-one 2,2,2-trifluoroacetate], which inhibition at 1 µM is on record?
The inhibition at 1 µM was greater than 50%.

COc1ccc2c(c1)[C@]1(C[C@H]1c1ccc3c(-c4ccc(N5CCN(CCO)CC5)cc4)n[nH]c3c1)C(=O)N2 [Example A191, (1R,2S)-2-(3-(4-(4-(2-hydroxyethyl)piperazin-1-yl)phenyl)-1H-indazol-6-yl)-5′-methoxyspiro[cyclopropane-1,3′-indolin]-2′-one 2,2,2-trifluoroacetate] was tested. Which inhibition at 1 µM did it give?
The inhibition at 1 µM was less than 50%.

COc1ccc2c(c1)[C@]1(C[C@H]1c1ccc3c(-c4ccc(N5CCN(C6CCCC6)CC5)cc4)n[nH]c3c1)C(=O)N2 [Example A192, (1R,2S)-2-(3-(4-(4-cyclopentylpiperazin-1-yl)phenyl)-1H-indazol-6-yl)-5′-methoxyspiro[cyclopropane-1,3′-indolin]-2′-one 2,2,2-trifluoroacetate] was tested. Which inhibition at 1 µM did it give?
Its inhibition at 1 µM is less than 50%.

With COc1ccc2c(c1)[C@]1(C[C@H]1c1ccc3c(-c4ccc(N5CCN(C6CCCCC6)CC5)cc4)n[nH]c3c1)C(=O)N2 [Example A193, (1R,2S)-2-(3-(4-(4-cyclohexylpiperazin-1-yl)phenyl)-1H-indazol-6-yl)-5′-methoxyspiro[cyclopropane-1,3′-indolin]-2′-one 2,2,2-trifluoroacetate] as the molecule, how does the inhibition at 1 µM read?
Its inhibition at 1 µM is less than 50%.

With COc1ccc2c(c1)[C@]1(C[C@H]1c1ccc3c(/C=C/c4ccc(OCCN5CCOCC5)cc4)n[nH]c3c1)C(=O)N2 [Example A194, (1R,2S)-(E)-5′-methoxy-2-(3-(4-(2-morpholinoethoxy)styryl)-1H-indazol-6-yl)spiro[cyclopropane-1,3′-indolin]-2′-one 2,2,2-trifluoroacetate] as the molecule, how does the inhibition at 1 µM read?
The inhibition at 1 µM was greater than 50%.

With Cc1ccc2c(c1)[C@]1(C[C@H]1c1ccc3c(/C=C/c4ccc(CN5CCOCC5)cc4)n[nH]c3c1)C(=O)N2 [Example A195, (1R,2S)-(E)-5′-methyl-2-(3-(4-(morpholinomethyl)styryl)-1H-indazol-6-yl)spiro[cyclopropane-1,3′-indolin]-2′-one 2,2,2-trifluoroacetate] as the molecule, how does the inhibition at 1 µM read?
Its inhibition at 1 µM is greater than 50%.

With COc1ccc2c(c1)[C@]1(C[C@H]1c1ccc3c(/C=C/c4cccnc4)n[nH]c3c1)C(=O)N2 [Example A197, (1R,2S)-5′-methoxy-2-(3-((E)-2-(pyridin-3-yl)vinyl)-1H-indazol-6-yl)spiro[cyclopropane-1,3′-indolin]-2′-one] as the molecule, how does the inhibition at 1 µM read?
The inhibition at 1 µM was greater than 50%.

With COc1ccc2c(c1)[C@]1(C[C@H]1c1ccc3c(/C=C/c4ccc(CN5CCOCC5)c(F)c4)n[nH]c3c1)C(=O)N2 [Example A199, (1R,2S)-(E)-2-(3-(3-fluoro-4-(morpholinomethyl)styryl)-1H-indazol-6-yl)-S-methoxyspiro[cyclopropane-1,3′-indolin]-2′-one 2,2,2-trifluoroacetate] as the molecule, how does the inhibition at 1 µM read?
The inhibition at 1 µM was greater than 50%.

Which inhibition at 1 µM does the source give for O=C1Nc2ccccc2[C@]12C[C@H]2c1ccc2c(/C=C/c3ccc(CN4CCOCC4)c(F)c3)n[nH]c2c1 [Example A200, (1R,2S)-(E)-2-(3-(3-fluoro-4-(morpholinomethyl)styryl)-1H-indazol-6-yl)spiro[cyclopropane-1,3′-indolin]-2′-one 2,2,2-trifluoroacetate] here?
The inhibition at 1 µM was greater than 50%.

With C[C@@H]1CCC[C@H](C)N1Cc1ccc(/C=C/c2n[nH]c3cc([C@@H]4C[C@@]45C(=O)Nc4ccccc45)ccc23)cc1 [Example A201, (1R,2S)-(E)-2-(3-(4-((cis-2,6-dimethylpiperidin-1-yl)methyl)styryl)-1H-indazol-6-yl)spiro[cyclopropane-1,3′-indolin]-2′-one 2,2,2-trifluoroacetate] as the molecule, how does the inhibition at 1 µM read?
Its inhibition at 1 µM is greater than 50%.

For O=C1Nc2ccccc2[C@]12C[C@H]2c1ccc2c(/C=C/c3csc(CN4CCOCC4)c3)n[nH]c2c1 [Example A202, (1R,2S)-2-(3-((E)-2-(5-(morpholinomethyl)thiophen-3-yl)vinyl)-1H-indazol-6-yl)spiro[cyclopropane-1,3′-indolin]-2′-one 2,2,2-trifluoroacetate], which inhibition at 1 µM is on record?
The inhibition at 1 µM was greater than 50%.

For COc1ccc2c(c1)[C@]1(C[C@H]1c1ccc3c(/C=C/c4ccc(CN5[C@H](C)CCC[C@@H]5C)cc4)n[nH]c3c1)C(=O)N2 [Example A203, (1R,2S)-(E)-2-(3-(4-((cis-2,6-dimethylpiperidin-1-yl)methyl)styryl)-1H-indazol-6-yl)-5′-methoxyspiro[cyclopropane-1,3′-indolin]-2′-one 2,2,2-trifluoroacetate], which inhibition at 1 µM is on record?
The inhibition at 1 µM was greater than 50%.

With O=C1Nc2ccccc2[C@]12C[C@H]2c1ccc2c(/C=C/c3ccc(OCCN4CCOCC4)cc3)n[nH]c2c1 [Example A204, (1R,2S)-(E)-2-(3-(4-(2-morpholinoethoxy)styryl)-1H-indazol-6-yl)spiro[cyclopropane-1,3′-indolin]-2′-one 2,2,2-trifluoroacetate] as the molecule, how does the inhibition at 1 µM read?
Its inhibition at 1 µM is greater than 50%.

How did the inhibition at 1 µM turn out when O=C1Nc2ccccc2[C@]12C[C@H]2c1ccc2c(/C=C/c3ccc(CCN4CCOCC4)cc3)n[nH]c2c1 [Example A205, (1R,2S)-(E)-2-(3-(4-(2-morpholinoethyl)styryl)-1H-indazol-6-yl)spiro[cyclopropane-1,3′-indolin]-2′-one 2,2,2-trifluoroacetate] was run?
Its inhibition at 1 µM is greater than 50%.

CCN(CC)Cc1ccc(/C=C/c2n[nH]c3cc([C@@H]4C[C@@]45C(=O)Nc4ccc(OC)cc45)ccc23)cc1 [Example A206, (1R,2S)-(E)-2-(3-(4-((diethylamino)methyl)styryl)-1H-indazol-6-yl)-5′-methoxy spiro[cyclopropane-1,3′-indolin]-2′-one 2,2,2-trifluoroacetate] was tested. Which inhibition at 1 µM did it give?
Its inhibition at 1 µM is greater than 50%.

For COc1ccc2c(c1)[C@]1(C[C@H]1c1ccc3c(/C=C/c4cc(F)c(CN(C)C)c(F)c4)n[nH]c3c1)C(=O)N2 [Example A216, (1R,2S)-(E)-2-(3-(4-((dimethylamino)methyl)-3,5-difluorostyryl)-1H-indazol-6-yl)-5′-methoxyspiro[cyclopropane-1,3′-indolin]-2′-one 2,2,2-trifluoroacetate], which inhibition at 1 µM is on record?
The inhibition at 1 µM was greater than 50%.

COc1ccc2c(c1)[C@]1(C[C@H]1c1ccc3c(/C=C/c4cc(F)c(CN5CCOCC5)c(F)c4)n[nH]c3c1)C(=O)N2 [Example A218, (1R,2S)-(E)-2-(3-(3,5-difluoro-4-(morpholinomethyl)styryl)-1H-indazol-6-yl)-5′-methoxyspiro[cyclopropane-1,3′-indolin]-2′-one 2,2,2-trifluoroacetate] was tested. Which inhibition at 1 µM did it give?
Its inhibition at 1 µM is greater than 50%.

With O=C1Nc2ccc(F)cc2[C@]12C[C@H]2c1ccc2c(/C=C/c3ccc(CN4CCOCC4)cc3)n[nH]c2c1 [Example A220] as the molecule, how does the inhibition at 1 µM read?
The inhibition at 1 µM was greater than 50%.
